According to patent US8796460B2, “Compounds for inhibiting KSP kinesin activity” (Mercky Sharp & Dohme Corp., priority 2007, dated 2014):

Tested on: HCT116 colon cancer cells
Assay: KSP Cellular Assay (percent of cells staining positive for Phos-Histone H3 / Phos-MPM2)
Type: cell-based
Details: Homo sapiens, HCT-116, 16 h, Table 601; HCT116 cells, 16 hours with drug; read-out: EC50 (nM) Range
Experimental: HCT116 colon cancer cells were grown in DMEM:F12 media with 10% heat inactivated FBS at 37 degrees with 5% CO2. Cells were plated at 7,500 cells per well in PDL coated 384-well tissue culture plates. 6 hours later media was removed and new media containing drug was added. Cells were incubated with drug for 16 hours. All further steps were performed at room temperature in the dark. Cells were fixed with 25 ul/well Prefer fixation solution plus 250 nM Hoechst dye and incubated for 30 minutes. The fixation solution was removed and cells were washed with PBS. Cells were then permeabilized with 25 ul/well 0.2% Triton-X in PBS and incubated for 10 minutes. Cells were washed with PBS and then incubated with 25 ul/well PBS containing 3% FBS for 30 minutes. Cells were then stained overnight at 4 degrees with 25 ul/well antibody solution in PBS plus 3% FBS. Antibodies used were Phos-Histone H3 (ser10)-Alexa Flur 488 Conjugate and Phos-MPM2 Texas Red Conjugate. Cells were washed with PBS and then immunofluorescence images captured with HT Pathway microscope. The percent of cells staining positive was calculated and EC50 values for the compounds of the invention that were tested were determined using Excel XLfit.
EC50 Determinations: Dose-response curves were plotted from inhibition data generated each in duplicate, from 8 point serial dilutions of inhibitory compounds. Concentration of compound was plotted against enzyme activity (OD reading). To generate EC50 values, the dose-response curves were then fitted to a standard sigmoidal curve and EC50 values were derived by nonlinear regression analysis.

EC50 [nM] | Structure (SMILES)
500 to 1000 | CN(C)C(=O)N1N=C(c2cc(F)ccc2F)SC12CCc1ccccc12 (stereo not drawn) [compound 602]
> 1000 | CN(C)C(=O)N1N=C(c2cc(F)ccc2F)SC12CCCc1sccc12 (stereo not drawn) [compound 603]

Same assay, conditions: Homo sapiens, HCT-116, 16 h, Table 701; HCT116 cells, 16 hours with drug; read-out: EC50 (nM) Range

EC50 [nM] | Structure (SMILES)
> 1000 | NCCN1N=C(c2cc(F)ccc2F)SC12CCOc1ccccc12 (stereo not drawn) [compound 701]
> 1000 | CC(C)N1N=C(c2cc(F)ccc2F)SC12CCOc1ccccc12 (stereo not drawn) [compound 702]
> 1000 | CCN1N=C(c2cc(F)ccc2F)SC12CCOc1ccccc12 (stereo not drawn) [compound 703]
> 1000 | COCCN1N=C(c2cc(F)ccc2F)SC12CCOc1ccccc12 (stereo not drawn) [compound 704]

Same assay, conditions: Homo sapiens, HCT-116, 16 h, Table 801; HCT116 cells, 16 hours with drug; read-out: EC50 (nM) Range

EC50 [nM] | Structure (SMILES)
≤ 500 | CC(=O)N1N=C(c2cc(F)ccc2F)S[C@@]12c1cc(F)ccc1OC[C@H]2CCN [compound 801]
> 1000 | CC(=O)N1N=C(c2cc(F)ccc2F)S[C@]12c1cc(F)ccc1OC[C@@H]2CCN [compound 802]
≤ 500 | CC(=O)N1N=C(c2cc(F)ccc2F)S[C@]12c1cc(F)ccc1OC[C@H]2CCN [compound 803]
≤ 500 | CC(=O)N1N=C(c2cc(F)ccc2F)S[C@@]12c1cc(F)ccc1OC[C@@H]2CCN [compound 804]
≤ 500 | CC(=O)N1N=C(c2cc(F)ccc2F)S[C@@]12c1cc(F)c(F)cc1OC[C@H]2CCN [compound 807]
> 1000 | CC(=O)N1N=C(c2cc(F)ccc2F)S[C@]12c1cc(F)c(F)cc1OC[C@@H]2CCN [compound 808]
≤ 500 | CC(=O)N1N=C(c2cc(F)ccc2F)S[C@@]12c1cccc(F)c1OC[C@H]2CCN [compound 809]
> 1000 | CC(=O)N1N=C(c2cc(F)ccc2F)S[C@]12c1cccc(F)c1OC[C@@H]2CCN [compound 810]
≤ 500 | CC(=O)N1N=C(c2cc(F)ccc2F)S[C@@]12c1cc(Cl)ccc1OC[C@H]2CCN [compound 811]
> 1000 | CC(=O)N1N=C(c2cc(F)ccc2F)S[C@]12c1cc(Cl)ccc1OC[C@@H]2CCN [compound 812]
≤ 500 | CC(=O)N1N=C(c2cc(F)ccc2F)S[C@@]12c1ccccc1OC[C@H]2CCNO [compound 813]
≤ 500 | CC(=O)N1N=C(c2cc(F)ccc2F)S[C@@]12c1ccccc1OC[C@@H]2CCN [compound 814]
≤ 500 | CC(=O)N1N=C(c2cc(F)ccc2F)S[C@@]12c1ccccc1OC[C@H]2CCN [compound 815]
> 1000 | CC(=O)N1N=C(c2cc(F)ccc2F)S[C@]12c1ccccc1OC[C@@H]2CCN [compound 816]
≤ 500 | CC(=O)N1N=C(c2cc(F)ccc2F)S[C@]12c1ccccc1OC[C@H]2CCN [compound 817]

Same assay, conditions: Homo sapiens, HCT-116, 16 h, Table 1201 (Example 1201); HCT116 cells, 16 hours with drug; read-out: EC50 (nM) Range

EC50 [nM] | Structure (SMILES)
≤ 500 | CCNCC[C@@H]1COc2ccccc2[C@@]12SC(c1cc(F)ccc1F)=NN2C(C)=O [compound 1202]
≤ 500 | CC(=O)N1N=C(c2cc(F)ccc2F)S[C@@]12c1ccccc1OC[C@H]2CCNC(C)C [compound 1203]

Same assay, conditions: Homo sapiens, HCT-116, 16 h, table of Example 901; HCT116 cells, 16 hours with drug; read-out: EC50 (nM) Range

EC50 [nM] | Structure (SMILES)
≤ 500 | CC(=O)N1N=C(c2cc(F)ccc2F)S[C@@]12c1ccccc1OC[C@@H]2CC#N [compound 902]
≤ 500 | CC(=O)N1N=C(c2cc(F)ccc2F)S[C@@]12c1ccccc1OC[C@H]2CC#N [compound 903]
500 to 1000 | CC(=O)N1N=C(c2cc(F)ccc2F)S[C@]12c1ccccc1OC[C@H]2CC#N [compound 904]
> 1000 | CC(=O)N1N=C(c2cc(F)ccc2F)S[C@]12c1ccccc1OC[C@@H]2CC#N [compound 905]
≤ 500 | CC(=O)N1N=C(c2cc(F)ccc2F)S[C@]12c1ccccc1C[C@H]2CC#N [compound 906]
≤ 500 | CC(=O)N1N=C(c2cc(F)ccc2F)S[C@]12c1ccccc1C[C@@H]2CC#N [compound 907]

Same assay, conditions: Homo sapiens, HCT-116, 16 h, table of Example 1004; HCT116 cells, 16 hours with drug; read-out: EC50 (nM) Range

EC50 [nM] | Structure (SMILES)
≤ 500 | CC(=O)N1N=C(c2cc(F)ccc2F)S[C@@]12c1ccccc1OC[C@H]2CCCN [compound 1004]
> 500 | CC(=O)N1N=C(c2cc(F)ccc2F)S[C@]12c1ccccc1OC[C@@H]2CCCN [compound 1005]

Same assay, conditions: Homo sapiens, HCT-116, 16 h, table of Example 1801 (headed Table 1201); HCT116 cells, 16 hours with drug; read-out: EC50 (nM) Range

EC50 [nM] | Structure (SMILES)
≤ 500 | CC(=O)N1N=C(c2ccccc2F)S[C@@]12c1ccccc1OC[C@H]2CCN [compound 1802]
≤ 500 | CC(=O)N1N=C(c2cc(Cl)ccc2F)S[C@@]12c1ccccc1OC[C@H]2CCN [compound 1803]
